Results published in ChEMBL document CHEMBL1149520, “Cyclopentane-based human NK1 antagonists. Part 1: discovery and initial SAR” (Bioorg Med Chem Lett, 2006).
Converted amounts (≈) assume the structure as drawn.

System: not listed separately
Experiment: Bioavailability in orally dosed dog
Assay type: ADME, organism-based, Canis lupus familiaris
Conditions: in vivo, po

bioavailability	Structure (SMILES)
40%	C[C@@H](O[C@H]1OCCN(Cc2n[nH]c(=O)[nH]2)[C@H]1c1ccc(F)cc1)c1cc(C(F)(F)F)cc(C(F)(F)F)c1 [APREPITANT]

System: not listed separately
Experiment: Dissociation constant, pKa of the compound
Assay type: physicochemical
Conditions: not given

Structure (SMILES)	pKa
C[C@@H](O[C@H]1OCCN(Cc2n[nH]c(=O)[nH]2)[C@H]1c1ccc(F)cc1)c1cc(C(F)(F)F)cc(C(F)(F)F)c1 [APREPITANT]	< 3.5
O=c1[nH]nc(CN2CCO[C@H](OCc3cc(C(F)(F)F)cc(C(F)(F)F)c3)[C@@H]2c2ccccc2)[nH]1	< 3.5

Second part, the compound after the results:

pKa	Structure (SMILES)
5.8	CN(CC(N)=O)[C@@H]1CC[C@H](OCc2cc(C(F)(F)F)cc(C(F)(F)F)c2)[C@H]1c1ccccc1 (racemic)
6.6	NC(=O)CN[C@@H]1CC[C@H](OCc2cc(C(F)(F)F)cc(C(F)(F)F)c2)[C@H]1c1ccccc1 (racemic)

System: not listed separately
Experiment: physchem
Conditions: sodium acetate/acetic acid buffer, pH 5

solubility	Structure (SMILES)
510 µg/mL (≈ 991 µM)	CN(C[C@@H]1CCC(=O)N1)[C@@H]1CC[C@H](OCc2cc(C(F)(F)F)cc(C(F)(F)F)c2)[C@H]1c1ccccc1
10 µg/mL (≈ 18.4 µM)	CN(CC[C@@H]1CC[C@H](OCc2cc(C(F)(F)F)cc(C(F)(F)F)c2)[C@H]1c1ccccc1)Cc1n[nH]c(=O)[nH]1 (racemic)
300 µg/mL (≈ 614 µM)	CN(CC(N)=O)C[C@@H]1CC[C@H](OCc2cc(C(F)(F)F)cc(C(F)(F)F)c2)[C@H]1c1ccccc1 (racemic)
200 µg/mL (≈ 378 µM)	CN(Cc1n[nH]c(=O)[nH]1)C[C@@H]1CC[C@H](OCc2cc(C(F)(F)F)cc(C(F)(F)F)c2)[C@H]1c1ccccc1 (racemic)
1100 µg/mL (≈ 2390 µM)	NC(=O)CN[C@@H]1CC[C@H](OCc2cc(C(F)(F)F)cc(C(F)(F)F)c2)[C@H]1c1ccccc1 (racemic)
800 µg/mL (≈ 1740 µM)	NC(=O)CN[C@H]1CC[C@H](OCc2cc(C(F)(F)F)cc(C(F)(F)F)c2)[C@@H]1c1ccccc1 (racemic)
80 µg/mL (≈ 151 µM)	CN(Cc1n[nH]c(=O)[nH]1)C[C@H]1CC[C@H](OCc2cc(C(F)(F)F)cc(C(F)(F)F)c2)[C@@H]1c1ccccc1 (racemic)
16 µg/mL (≈ 33.7 µM)	CN(CC(N)=O)[C@@H]1CC[C@H](OCc2cc(C(F)(F)F)cc(C(F)(F)F)c2)[C@H]1c1ccccc1 (racemic)
590 µg/mL (≈ 1240 µM)	NC(=O)CNC[C@@H]1CC[C@H](OCc2cc(C(F)(F)F)cc(C(F)(F)F)c2)[C@H]1c1ccccc1 (racemic)
4000 µg/mL (≈ 7990 µM)	O=C1CC[C@@H](CN[C@@H]2CC[C@H](OCc3cc(C(F)(F)F)cc(C(F)(F)F)c3)[C@H]2c2ccccc2)N1

System: not listed separately
Experiment: Solubility in potassium hydrogen phosphate buffer at pH 5
Assay type: physicochemical
Conditions: not given

solubility	Structure (SMILES)
< 0.5 µg/mL	C[C@@H](O[C@H]1OCCN(Cc2n[nH]c(=O)[nH]2)[C@H]1c1ccc(F)cc1)c1cc(C(F)(F)F)cc(C(F)(F)F)c1 [APREPITANT]
3 µg/mL (≈ 5.97 µM)	O=c1[nH]nc(CN2CCO[C@H](OCc3cc(C(F)(F)F)cc(C(F)(F)F)c3)[C@@H]2c2ccccc2)[nH]1

System: not listed separately
Experiment: Bioavailability in orally dosed rat
Assay type: ADME, organism-based
Conditions: in vivo, po

bioavailability	Structure (SMILES)
53%	C[C@@H](O[C@H]1OCCN(Cc2n[nH]c(=O)[nH]2)[C@H]1c1ccc(F)cc1)c1cc(C(F)(F)F)cc(C(F)(F)F)c1 [APREPITANT]

Target: Substance-P receptor (Homo sapiens, UniProt P25103)
Sequence (P25103 whole entry): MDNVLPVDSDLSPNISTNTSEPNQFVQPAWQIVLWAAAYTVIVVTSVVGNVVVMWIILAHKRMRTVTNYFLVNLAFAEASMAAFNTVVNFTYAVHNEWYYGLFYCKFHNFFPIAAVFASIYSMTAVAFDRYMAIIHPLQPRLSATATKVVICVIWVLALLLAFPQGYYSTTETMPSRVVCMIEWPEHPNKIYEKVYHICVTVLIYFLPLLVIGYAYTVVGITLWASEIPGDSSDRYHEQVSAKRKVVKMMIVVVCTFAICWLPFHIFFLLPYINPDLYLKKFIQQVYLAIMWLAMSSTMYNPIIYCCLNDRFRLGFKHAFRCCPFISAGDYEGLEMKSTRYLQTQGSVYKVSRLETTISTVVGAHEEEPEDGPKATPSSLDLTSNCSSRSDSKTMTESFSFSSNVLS
Experiment: biochemical
Conditions: not given

Structure (SMILES)	IC50
NC(=O)[C@@H]1CC[C@H](OCc2cc(C(F)(F)F)cc(C(F)(F)F)c2)[C@H]1c1ccccc1 (racemic)	7.2 nM
O=C(N[C@H]1CC[C@H](OCc2cc(C(F)(F)F)cc(C(F)(F)F)c2)[C@@H]1c1ccccc1)OCc1ccccc1 (racemic)	300 nM
COC(=O)N[C@H]1CC[C@H](OCc2cc(C(F)(F)F)cc(C(F)(F)F)c2)[C@@H]1c1ccccc1 (racemic)	5.3 nM
O=C(N[C@@H]1CC[C@H](OCc2cc(C(F)(F)F)cc(C(F)(F)F)c2)[C@H]1c1ccccc1)OCc1ccccc1 (racemic)	40 nM
FC(F)(F)c1cc(CO[C@H]2CC[C@@H](CN3CCOCC3)[C@@H]2c2ccccc2)cc(C(F)(F)F)c1 (racemic)	8.2 nM
CN[C@H]1CC[C@H](OCc2cc(C(F)(F)F)cc(C(F)(F)F)c2)[C@@H]1c1ccccc1 (racemic)	7.2 nM
O=C1CC[C@@H](CN[C@H]2CC[C@@H](OCc3cc(C(F)(F)F)cc(C(F)(F)F)c3)[C@@H]2c2ccccc2)N1	260 nM
NC(=O)CN[C@H]1CC[C@H](OCc2cc(C(F)(F)F)cc(C(F)(F)F)c2)[C@@H]1c1ccccc1 (racemic)	8.3 nM
COC(=O)N(C)[C@@H]1CC[C@H](OCc2cc(C(F)(F)F)cc(C(F)(F)F)c2)[C@H]1c1ccccc1 (racemic)	6.2 nM
CN(C)C(=O)N(C)[C@@H]1CC[C@H](OCc2cc(C(F)(F)F)cc(C(F)(F)F)c2)[C@H]1c1ccccc1 (racemic)	16 nM
NC(=O)N[C@H]1CC[C@H](OCc2cc(C(F)(F)F)cc(C(F)(F)F)c2)[C@@H]1c1ccccc1 (racemic)	9.8 nM
O=C(O)[C@@H]1CC[C@H](OCc2cc(C(F)(F)F)cc(C(F)(F)F)c2)[C@H]1c1ccccc1 (racemic)	67 nM
N[C@@H]1CC[C@H](OCc2cc(C(F)(F)F)cc(C(F)(F)F)c2)[C@H]1c1ccccc1 (racemic)	5.7 nM
O=c1[nH]cc(CN[C@@H]2CC[C@H](OCc3cc(C(F)(F)F)cc(C(F)(F)F)c3)[C@H]2c2ccccc2)[nH]1 (racemic)	5.2 nM
NC(=O)CN[C@H]1CC[C@@H](OCc2cc(C(F)(F)F)cc(C(F)(F)F)c2)[C@@H]1c1ccccc1 (relative stereo)	45 nM
N[C@H]1CC[C@@H](OCc2cc(C(F)(F)F)cc(C(F)(F)F)c2)[C@@H]1c1ccccc1 (relative stereo)	100 nM
N[C@H]1CC[C@H](OCc2cc(C(F)(F)F)cc(C(F)(F)F)c2)[C@@H]1c1ccccc1 (racemic)	7.9 nM

Second part, the compound after the results:

IC50	Structure (SMILES)
5 nM	FC(F)(F)c1cc(CO[C@H]2CC[C@@H](CN3CCCCC3)[C@@H]2c2ccccc2)cc(C(F)(F)F)c1 (racemic)
5 nM	CN(C)C(=O)N[C@@H]1CC[C@H](OCc2cc(C(F)(F)F)cc(C(F)(F)F)c2)[C@H]1c1ccccc1 (racemic)
4.9 nM	CN(CC[C@@H]1CC[C@H](OCc2cc(C(F)(F)F)cc(C(F)(F)F)c2)[C@H]1c1ccccc1)Cc1n[nH]c(=O)[nH]1 (racemic)
4.7 nM	CN(Cc1n[nH]c(=O)[nH]1)C[C@H]1CC[C@H](OCc2cc(C(F)(F)F)cc(C(F)(F)F)c2)[C@@H]1c1ccccc1 (racemic)
3.5 nM	NC(=O)N[C@@H]1CC[C@H](OCc2cc(C(F)(F)F)cc(C(F)(F)F)c2)[C@H]1c1ccccc1 (racemic)
2.7 nM	NC[C@@H]1CC[C@H](OCc2cc(C(F)(F)F)cc(C(F)(F)F)c2)[C@H]1c1ccccc1 (racemic)
2.7 nM	CN(CC(N)=O)[C@@H]1CC[C@H](OCc2cc(C(F)(F)F)cc(C(F)(F)F)c2)[C@H]1c1ccccc1 (racemic)
2.7 nM	CNC(=O)N[C@@H]1CC[C@H](OCc2cc(C(F)(F)F)cc(C(F)(F)F)c2)[C@H]1c1ccccc1 (racemic)
2.3 nM	N[C@@H]1CC[C@H](OCc2cc(C(F)(F)F)cc(C(F)(F)F)c2)[C@H]1c1ccccc1 (relative stereo)
2.1 nM	CN(CC(N)=O)[C@H]1CC[C@H](OCc2cc(C(F)(F)F)cc(C(F)(F)F)c2)[C@@H]1c1ccccc1 (racemic)
2 nM	CN(Cc1n[nH]c(=O)[nH]1)C[C@@H]1CC[C@H](OCc2cc(C(F)(F)F)cc(C(F)(F)F)c2)[C@H]1c1ccccc1 (racemic)
1.9 nM	CN(CC(N)=O)C[C@@H]1CC[C@H](OCc2cc(C(F)(F)F)cc(C(F)(F)F)c2)[C@H]1c1ccccc1 (racemic)
1.9 nM	CNC[C@@H]1CC[C@H](OCc2cc(C(F)(F)F)cc(C(F)(F)F)c2)[C@H]1c1ccccc1 (racemic)
1.9 nM	NC(=O)CNC[C@@H]1CC[C@H](OCc2cc(C(F)(F)F)cc(C(F)(F)F)c2)[C@H]1c1ccccc1 (racemic)
1.5 nM	O=C1CC[C@@H](CN[C@@H]2CC[C@H](OCc3cc(C(F)(F)F)cc(C(F)(F)F)c3)[C@H]2c2ccccc2)N1
1.3 nM	NC(=O)CN[C@@H]1CC[C@H](OCc2cc(C(F)(F)F)cc(C(F)(F)F)c2)[C@H]1c1ccccc1 (racemic)
1.1 nM	CN(Cc1nnc[nH]1)[C@@H]1CC[C@H](OCc2cc(C(F)(F)F)cc(C(F)(F)F)c2)[C@H]1c1ccccc1 (racemic)
0.95 nM	NC(=O)CN[C@@H]1CC[C@H](OCc2cc(C(F)(F)F)cc(C(F)(F)F)c2)[C@H]1c1ccccc1 (relative stereo)
0.89 nM	COC(=O)N[C@@H]1CC[C@H](OCc2cc(C(F)(F)F)cc(C(F)(F)F)c2)[C@H]1c1ccccc1 (racemic)
0.83 nM	CN[C@@H]1CC[C@H](OCc2cc(C(F)(F)F)cc(C(F)(F)F)c2)[C@H]1c1ccccc1 (racemic)
0.81 nM	CN(C[C@@H]1CCC(=O)N1)[C@@H]1CC[C@H](OCc2cc(C(F)(F)F)cc(C(F)(F)F)c2)[C@H]1c1ccccc1
0.77 nM	OC[C@@H]1CC[C@H](OCc2cc(C(F)(F)F)cc(C(F)(F)F)c2)[C@H]1c1ccccc1 (racemic)

Species on record: Cavia porcellus
Experiment: animal or person
Conditions: Plasma, po, read-out: Inhibition

Structure (SMILES)	inhibition in vivo at 1 mg/kg
NC(=O)CN[C@@H]1CC[C@H](OCc2cc(C(F)(F)F)cc(C(F)(F)F)c2)[C@H]1c1ccccc1 (racemic)	60%
COC(=O)N[C@@H]1CC[C@H](OCc2cc(C(F)(F)F)cc(C(F)(F)F)c2)[C@H]1c1ccccc1 (racemic)	< 25%
